pIC50: −log10 of the molar value.
Tests used:
MDA-MB-231 [1] = details: breast, HER2 score 0, dose 20 mg/kg/day orally for 14 days
Method: (§1) An increase in the tumor volume from that before administration to that on the next day of the final administration was compared to that of the control group and an anti-tumor effect was studied. In addition, the tumor volume was calculated from the following equation: […]
(§2) A ratio of the value obtained by subtracting a tumor volume on the day of the administration initiation from the tumor volume on the next day of the completion of the administration in the control group, and the value obtained by subtracting the tumor volume on the day of the administration initiation from the tumor volume on the next day of the completion of the administration was determined as a growth rate (T/C (%)).

[2] = system: HER2 high expression human breast cancer cells BT-474; details: HER2 score 3+, dose 20 mg/kg/day orally for 14 days
Method: Immediately after transplantation and day 7 after the transplantation, estradiol dipropionate (5 mg/kg solution, 50 μL) was intramuscularly administered to the hind leg with the aim of enhancing the survival rate of the tumor. HER2 expression human non-parvicellular lung cancer A549 cells were suspended in Matrigel solution and 5,000,000 cells were subcutaneously transplanted into the chest of female BALB/c nude mouse (6 weeks of age). HER2 expression human kidney cancer ACHN cells (2,000,000 cells) were subcutaneously transplanted into the chest of nude mouse. […]
as §1, §2

[3] = system: HER2 high expression human breast cancer cells BT-474; details: BT-474, 1 μmol/L, 5 days
Method: After the culture, the culture medium was removed and a cell suspension was prepared by a trypsin treatment and the cells were fixed with 70% ethanol. The DNA of the cells was stained with propidium iodide and the DNA amount was measured by a flow cytometer. The cells with a decreased amount of DNA are apoptotic (cell death) cells.

[4] = system: HER2 expression cells (Ma-46); details: 3 days, cell count
Method: (§3) 1) Cell growth inhibitory action; Each cell line was sown in a 24-well multi-well plate (5×10^4 cells/well) and cultured overnight in a carbon dioxide gas incubator (5% CO2, 37° C. ).

[5] = system: HER2/EGF-R co-expression cells (A549); details: 3 days, cell count
Method: as §3

[6] = system: HER2 non-expression cells (Ma-1); details: 3 days, cell count
Method: as §3

SW480 = assay: cells; details: Homo sapiens, SW480, read-out: Compound B4 IC50 (μmol/L), SW480
Method: (§4) 1) Cell growth inhibitory action; Each cell line was sown in a 24-well multi-well plate (5×10^4 to 2×10^5 cells/well) and cultured overnight in a carbon dioxide gas incubator (5% CO2, 37° C. ).

A549 = assay: cells; details: Homo sapiens, A549, read-out: Compound B4 IC50 (μmol/L), A549
Method: as §4

ES-2 = assay: cells; details: Homo sapiens, ES-2, read-out: Compound B4 IC50 (μmol/L), ES-2
Method: as §4

NIH: OV-CAR-3 = assay: cells; details: Homo sapiens, OVCAR-3, read-out: Compound B4 IC50 (μmol/L), NIH: OV-CAR-3
Method: as §4

MIA-PaCa-2 = assay: cells; details: Homo sapiens, MIA PaCa-2, read-out: Compound B4 IC50 (μmol/L), MIA-PaCa-2
Method: as §4

ACHN = assay: cells; details: Homo sapiens, read-out: Compound B4 IC50 (μmol/L), ACHN
Method: as §4

Ma-1 = assay: cells; details: read-out: Compound B4 IC50 (μmol/L), Ma-1
Method: as §4

G401 = assay: cells; details: Homo sapiens, G-401, read-out: Compound B4 IC50 (μmol/L), G401
Method: as §4

BxPC-3 = assay: cells; details: Homo sapiens, BXPC-3, read-out: Compound B4 IC50 (μmol/L), BxPC-3
Method: as §4

BT-474 = assay: cells; details: Homo sapiens, BT-474, read-out: Compound B4 IC50 (μmol/L), BT-474
Method: as §4

PA-1 = assay: cells; details: Homo sapiens, PA-1, read-out: Compound B4 IC50 (μmol/L), PA-1
Method: as §4

MDA-MB-231 [7] = assay: cells; details: Homo sapiens, MDA-MB-231, read-out: Compound B4 IC50 (μmol/L), MDA-MB-231
Method: as §4

HCT-116 = assay: cells; details: Homo sapiens, HCT-116, read-out: Compound B4 IC50 (μmol/L), HCT-116
Method: as §4

786-O = assay: cells; details: Homo sapiens, 786-0, read-out: Compound B4 IC50 (μmol/L), 786-O
Method: as §4

[8] = system: HER2 high expression human breast cancer cell BT-474; assay: Anti-tumor effect, combined use, BT-474 cancer-bearing nude mice; assay type: in vivo; details: BT-474 nude mice, 5 cases out of 5, same regimens as T/C
Method: An increase in the tumor volume from that before administration to that on the next day of the final administration was compared to that of the control group and anti-tumor effect was studied. In addition, the tumor volume was calculated from the following equation:
Formula: Tumor volume=longer diameter×shorter diameter×shorter diameter×(½)
The ratio of the value obtained by subtracting the tumor volume on the day of administration initiation from the tumor volume on the next day of the completion of the administration in the control group, and the value obtained by subtracting the tumor volume on the day of administration initiation from the tumor volume on the next day of the completion of the administration was determined as a growth rate (T/C (%)).

Src = Src (Homo sapiens, UniProt P12931); assay: cell-based
Chain of Src (P12931 2-536 limits assumed): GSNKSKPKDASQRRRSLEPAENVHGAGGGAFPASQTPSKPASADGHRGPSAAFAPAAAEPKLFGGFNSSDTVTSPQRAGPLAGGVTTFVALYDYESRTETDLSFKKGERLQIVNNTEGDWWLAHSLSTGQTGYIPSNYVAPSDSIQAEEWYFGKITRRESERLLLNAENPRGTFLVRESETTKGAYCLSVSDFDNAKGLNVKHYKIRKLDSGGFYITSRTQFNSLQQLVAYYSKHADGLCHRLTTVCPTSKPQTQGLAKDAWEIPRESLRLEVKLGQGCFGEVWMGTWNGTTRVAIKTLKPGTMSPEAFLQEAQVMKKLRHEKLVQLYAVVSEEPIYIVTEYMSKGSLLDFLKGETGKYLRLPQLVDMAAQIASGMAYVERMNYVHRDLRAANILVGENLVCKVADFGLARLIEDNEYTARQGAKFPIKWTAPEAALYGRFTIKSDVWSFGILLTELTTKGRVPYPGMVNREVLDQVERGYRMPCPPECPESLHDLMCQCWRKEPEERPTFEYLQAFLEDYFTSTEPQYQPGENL
Method: The medium was changed to a serum-free medium and the cells were further incubated for one day. […] The culture medium was removed 5 min later and SDS sample buffer was added to give a cell lysate (200 μL).

HER2 [9] = biological target: T1, HER2 (Homo sapiens, UniProt P04626); assay: cell-based
T1 sequence (P04626 23-1255): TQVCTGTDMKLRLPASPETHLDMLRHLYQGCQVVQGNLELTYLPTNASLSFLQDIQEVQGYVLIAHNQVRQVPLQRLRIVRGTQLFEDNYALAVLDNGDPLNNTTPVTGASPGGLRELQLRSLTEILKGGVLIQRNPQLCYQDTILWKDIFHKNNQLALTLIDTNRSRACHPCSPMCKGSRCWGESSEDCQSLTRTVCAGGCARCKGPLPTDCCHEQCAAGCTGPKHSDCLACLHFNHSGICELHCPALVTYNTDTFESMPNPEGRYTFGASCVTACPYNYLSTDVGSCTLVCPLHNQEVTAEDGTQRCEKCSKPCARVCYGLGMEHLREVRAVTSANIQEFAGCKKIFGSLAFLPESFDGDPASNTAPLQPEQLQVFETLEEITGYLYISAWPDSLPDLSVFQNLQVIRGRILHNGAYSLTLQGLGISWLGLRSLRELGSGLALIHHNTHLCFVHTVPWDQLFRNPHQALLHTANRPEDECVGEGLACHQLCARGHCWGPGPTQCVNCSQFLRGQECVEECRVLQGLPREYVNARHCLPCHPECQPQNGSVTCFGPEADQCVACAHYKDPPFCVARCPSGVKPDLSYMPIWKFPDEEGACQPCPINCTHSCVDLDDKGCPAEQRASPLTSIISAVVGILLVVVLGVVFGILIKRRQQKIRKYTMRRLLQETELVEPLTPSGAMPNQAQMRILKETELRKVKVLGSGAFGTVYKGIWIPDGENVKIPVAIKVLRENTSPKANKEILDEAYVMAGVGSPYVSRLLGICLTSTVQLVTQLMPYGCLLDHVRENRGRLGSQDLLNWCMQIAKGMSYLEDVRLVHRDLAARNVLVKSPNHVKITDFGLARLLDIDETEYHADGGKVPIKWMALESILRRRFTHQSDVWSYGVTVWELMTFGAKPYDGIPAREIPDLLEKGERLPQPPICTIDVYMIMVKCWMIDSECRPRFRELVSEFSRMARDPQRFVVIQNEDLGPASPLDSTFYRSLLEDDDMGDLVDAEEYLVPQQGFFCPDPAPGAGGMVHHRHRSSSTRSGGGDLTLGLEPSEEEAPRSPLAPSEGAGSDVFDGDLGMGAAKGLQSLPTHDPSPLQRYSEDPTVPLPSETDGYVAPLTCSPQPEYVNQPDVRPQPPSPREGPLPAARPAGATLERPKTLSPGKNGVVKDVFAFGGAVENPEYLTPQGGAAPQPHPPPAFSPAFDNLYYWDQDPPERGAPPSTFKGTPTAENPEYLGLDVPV

HER2 [10] = biological target: T1, HER2; assay: in vivo
Method: Four hours later, the tumor was sampled and a tumor homogenate was prepared.

SMILES: FC(F)(F)c1ccc(/C=C/c2nc(COc3ccc(CCCCn4ccnn4)cc3)co2)cc1 [Compound B4, 1-(4-{4-[(2-{(E)-2-[4-(trifluoromethyl)phenyl]ethenyl}-1,3-oxazol-4-yl)methoxy]phenyl}butyl)-1H-1,2,3-triazole]
- T/C (%), MDA-MB-231 (MDA-MB-231 [1]): 87%
- T/C (%), BT-474 [2]: −18%
- cell death induction [3]: induced cell death
- cell growth inhibitory action on Ma-46 [4]: strong cell growth inhibitory action
- cell growth inhibitory action on A549 [5]: strong cell growth inhibitory action
- cell growth inhibitory action on Ma-1 [6]: did not show a cell growth inhibitory action
- pIC50 (SW480): < 4.60
- pIC50 (A549): 8.10
- pIC50 (ES-2): 4.92
- pIC50 (NIH: OV-CAR-3): 7.22
- pIC50 (MIA-PaCa-2): 7.70
- pIC50 (ACHN): 6.85
- pIC50 (Ma-1): < 4.60
- pIC50 (G401): > 7.30
- pIC50 (BxPC-3): < 4.60
- pIC50 (BT-474): 7.30
- pIC50 (PA-1): > 7.30
- pIC50 (MDA-MB-231 [7]): < 4.60
- pIC50 (HCT-116): > 7.30
- pIC50 (786-O): < 4.60
- reduction of tumor volume [8]: 13-30%
- pIC50 (Src): < 4.60
- pIC50 (HER2 [9]): 8.40
- inhibition at 20 mg/kg (HER2 [10]; BT-474, mouse, po, read-out: intra-tumor HER2 phosphorylation, % inhibition): 87%
- intra-tumor HER2 phosphorylation (per tumor weight), % of the control group (HER2 [10]; BT-474 nude mice, 20 mg/kg/day orally 14 days then 10 mg/kg, tumor sampled four hours later): 13%

Reference: US20040116330A1, “Preventive/therapeutic method for cancer” (priority 2001, published 2004)
